According to US10322136B2, “Composition for inhibiting growth or proliferation of chronic myelogenous leukemia cancer stem cells, and screening method therefor” (HIROSHIMA UNIVERSITY, priority 2015, dated 2019):

How the values were obtained:
CML-KLS+ cells = test: Metabolomic analysis of dipeptides in KLS+ cells from treated CML-affected mice; assay type: in vivo, mouse; conditions: cefadroxil 36 mg/kg/day oral gavage for 30 days
Protocol: To detect inhibition of dipeptide uptake in vivo, immature KLS^+ cells were isolated from tet-inducible CML-affected (Tal1-tTA^+TRE-BCR-ABL1^+) mice (n=4 mice in each of the three independent experiments), and normal healthy littermate (Tal1-tTA^+) mice (n=6 mice in each of the two independent experiments) that had received vehicle or cefadroxil (36 mgKg^−1day^−1) by oral gavage for 30 days. […] In all cases, isolated cell pellets were frozen at −80° C. immediately after obtaining. Metabolomic profiling was performed by Metabolon Inc. (Durham, N.C.) using ultrahigh-performance liquid chromatography/mass spectroscopy (UPLC/MS/MS) and gas chromatography/MS (GC/MS). Data were compiled using the Metabolon LIMS (Laboratory Information Management System). The UPLC/MS/MS portion of the platform was based on a Waters Acquity UPLC (Waters) and a Q-Exactive high-resolution/accurate mass spectrometer (Thermo Scientific) interfaced with a heated electrospray ionization (HESI-II) source and Orbitrap mass analyzer. GC/MS was performed by a Trace DSQ fast-scanning single-quadrupole mass spectrometer using electron impact ionization (Thermo-Finnigan).

LT-CML cancer stem cells = test: Colony-forming assay, LT-CML cancer stem cells on OP-9 stromal cells; assay type: cell-based, mouse; conditions: 5 μM, 5 days, hypoxic (3% O2)
Protocol: LT-CML stem cells or LT-normal HSCs (1×10^3/plate) were co-cultured on OP-9 stromal cells for 5 days in the presence of either vehicle (control) or a dipeptide transporter inhibitor cefadroxil (5 μM). Cells were harvested, washed with PBS, and plated in semi-solid methylcellulose medium containing SCF, IL-3, IL-6 and erythropoietin (Methocult GF M3434; Stem Cell Technologies). After growth for 7 days in a humidified atmosphere containing 5% CO2 at 37° C., colony numbers were counted under a light microscope. For combination treatments of dipeptide transporter inhibitor+tyrosine kinase inhibitor (TKI), LT-CML cancer stem cells (3×10^3) were plated on OP-9 stromal cells in the presence of cefadroxil (5 μM). After 24 h in culture, the cells received additional DMSO or 1 μM IM (Axon Medchem) and were incubated for another 4 days (total 5 days). Treated cells were washed with PBS, transferred to a semi-solid medium, and colony formation after 7 days was assessed as described above.

Slc15A2 transporter = target: T1, Slc15A2 transporter (Mus musculus, UniProt Q9ES07); test: Slc15A2 transporter activity by [3H]GlySar uptake; assay type: cell-based; conditions: in the presence of 100 μM cefadroxil; pH 6.0; 60 or 120 min
T1 construct: endogenous in cells; host or cells: primary mouse normal KLS+ and CML KLS+ haematopoietic cells
T1 sequence (Q9ES07 1-729): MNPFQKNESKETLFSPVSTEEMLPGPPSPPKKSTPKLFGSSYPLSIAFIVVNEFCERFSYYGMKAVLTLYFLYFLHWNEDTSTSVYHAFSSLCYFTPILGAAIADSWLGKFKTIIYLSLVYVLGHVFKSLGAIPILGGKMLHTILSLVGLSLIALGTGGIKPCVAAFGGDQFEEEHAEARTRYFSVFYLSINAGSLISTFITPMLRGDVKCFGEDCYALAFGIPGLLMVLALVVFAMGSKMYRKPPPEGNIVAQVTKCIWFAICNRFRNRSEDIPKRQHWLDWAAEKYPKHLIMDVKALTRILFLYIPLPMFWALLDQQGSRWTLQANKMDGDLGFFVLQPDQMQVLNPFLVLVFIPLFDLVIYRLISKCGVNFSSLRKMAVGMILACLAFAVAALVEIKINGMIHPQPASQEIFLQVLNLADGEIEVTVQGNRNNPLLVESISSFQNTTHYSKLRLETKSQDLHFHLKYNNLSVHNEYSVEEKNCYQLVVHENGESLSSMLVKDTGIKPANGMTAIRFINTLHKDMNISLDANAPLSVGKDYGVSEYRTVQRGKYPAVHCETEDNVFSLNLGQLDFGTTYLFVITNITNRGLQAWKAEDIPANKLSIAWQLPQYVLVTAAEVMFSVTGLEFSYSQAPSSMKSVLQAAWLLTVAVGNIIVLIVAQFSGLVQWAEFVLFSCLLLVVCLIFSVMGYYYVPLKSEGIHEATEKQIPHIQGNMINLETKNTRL
Protocol: 6. Analysis of Slc15A2 Transporter Activity by [3H]GlySar Uptake
Slc15A2 transporter activity was determined using a well-established assay measuring [3H]GlySar uptake by cells suspended in an acidic transport medium (pH 6.0). Briefly, normal KLS^+ cells or CML KLS^+ cells (1×10^5) were suspended in a transport medium (125 mM NaCl, 4.8 mM KCl, 5.6 mM D-glucose, 1.2 mM CaCl2-2H2O4, 1.2 mM KH2PO4, 1.2 mM MgSO4-7H2O and 25 mM MES, pH 6.0) in the absence or presence of 100 μM cefadroxil (Sigma-Aldrich). To initiate the transporter reaction, [3H]GlySar (Moravek Biochemicals, Brea, Calif.) was added to the cell suspension. After 60 or 120 min, the radioactivity of [3H]GlySar internalized by cells was measured using a liquid scintillation counter.

[1] = system: human CD34+CD38-Lin- CML-LICs; test: Colony-forming capacity of human CML leukemia-initiating cells; assay type: cell-based; conditions: 5 μM cefadroxil, 5 days, three patients
From the text: Viable BM MNCs from three human patients with chronic phase CML were purchased from All cells (#06-255, #06-620, and #147742, Alameda, Calif., USA). Documents confirming the informed consent of the patient are available in http://www.veritastk.co.jp/attached/3978/AllCells_BM_Informed_Consent_Form.pdf. These cells were stained with anti-CD34(8G12), anti-CD38(HIT2), anti-CD3(SK7), anti-CD16(3G8), anti-CD19(SJ25C1), anti-CD20(L27), anti-CD14(MpP9), and anti-CD56(NCAM16.2) antibodies (all purchased from BD Biosciences). A mixture of mAbs recognizing CD3, CD16, CD19, CD20, CD14 and CD56 was used to identify Lin^− cells, and CD34^+CD38^−Lin^− cells were purified. To determine the effects of treatment with cefadroxil (5 μM) alone, or with a combination of cefadroxil+IM (1 μM; Axon Medchem) or dasatinib (500 nM; LC laboratories), CD34^+CD38^−Lin^− cells were cultured on OP-9 stromal cells under hypoxic (3% O2) conditions. After harvesting and washing with PBS, the colony-forming ability of the most primitive human CML leukemia-initiating cells (LICs) was evaluated by culture in semi-solid methylcellulose medium containing SCF, GM-CSF, IL-3, IL-6, G-CSF, and erythropoietin (Methocult GF+ H4435; Stem Cell Technologies). After growth for 7 days at 37° C. under hypoxic (3% O2) conditions, colony numbers were counted under a light microscope.

Compound: CC1=C(C(=O)O)N2C(=O)[C@@H](NC(=O)[C@H](N)c3ccc(O)cc3)[C@H]2SC1 [cefadroxil]
- levels of several dipeptides in immature CML-KLS+ cells (CML-KLS+ cells): decreased
- colony-forming capacity of LT-CML cancer stem cells (LT-CML cancer stem cells): significantly decreased
- [3H]GlySar uptake by CML-KLS+ cells (Slc15A2 transporter): markedly decreased
- colony-forming capacity of human CML-LIC samples [1]: suppressed
